Measured values taken from PubChem BioAssay (NCI).
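In this assay, cells in 96-well plates receive the compound at five concentrations for 48 hours. Endpoints are linearly interpolated between the surrounding concentrations. GI50 marks 50% less growth. TGI: total growth inhibition.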

How the values were obtained:
Assay in all cases: NCI anticancer screen, dose series, 48 h
[1] = system: ACHN renal
[2] = system: CAKI-1 renal
[3] = system: MOLT-4 leukemia
[4] = system: NCI-H460 lung
[5] = system: NCI-H522 lung
[6] = system: SW-620 colon
[7] = system: SK-OV-3 ovarian
[8] = system: SNB-75 CNS

Structure (SMILES)	TGI [1] [µM]	TGI [2] [µM]	TGI [3] [µM]	TGI [4] [µM]	TGI [5] [µM]	TGI [6] [µM]	TGI [7] [µM]	TGI [8] [µM]	GI50 [1] [µM]	GI50 [3] [µM]	GI50 [4] [nM]	GI50 [8] [µM]	GI50 [6] [µM]	GI50 [7] [nM]
OCC1=C[C@@](COCc2ccccc2)(OCc2ccccc2)[C@@H](OCc2ccccc2)[C@@H]1OCc1ccccc1	> 100	45.1	8.89	53.1	51	> 100								
COc1cc(/C=C/C=C2\CC(C)C/C(=C\C=C\c3ccc(O)c(OC)c3)C2=O)ccc1O (stereo unspecified)	40.8	33.2	29.6	92.3	2.5	> 100	18.2	32.3						
CNc1ccc([N+](=O)[O-])cc1C(=O)N1CCC[C@H]1CO	> 100	> 100	> 100	> 100	> 100	> 100	> 100	> 100						
CC[N+]1(C)CCC(O)(/C=C/c2ccc(Cl)c(Cl)c2)C(C(=O)/C=C/c2ccc(Cl)c(Cl)c2)C1 (stereo unspecified)	4.15	12.7	5.17	9.03	3.34	4.47	16.5	12.2						
C1CN(C23OC4(N5CCOCC5)C5C6CC(C7C6C4C72)C53)CCO1 (stereo unspecified)	> 31.6	> 100	> 100	> 100	> 100	> 100	> 100	> 100						
O=c1oc2ccccc2cc1-c1nc2ccccc2s1	> 20.1	15.6		53	21.5	34.8	23.7	17.4						
CN(NC(=O)/C(=C/C=C/c1ccccc1)NC(=O)c1ccccc1)C1=C(Cl)C(=O)[N+](c2ccccc2)=CC1	81	> 100	81.9	> 100	61.5	33.8	> 100	69.6						
COC(=O)C1CC(C=O)=C(SC)N1 (stereo unspecified)	> 50	> 50	> 50	> 50	> 50	> 50	> 50	> 50						
O=C(n1c(=O)n(-c2ccc([N+](=O)[O-])cc2)c(=O)n1C(=O)C(Cl)(Cl)Cl)C(Cl)(Cl)Cl	> 100	> 100		> 100	> 100	> 100	> 100	> 100						
CCCCCCCCCC[C@@H](O)[C@H]1CC[C@@H]([C@H]2CC[C@H]([C@H](O)CCCCCCCCCC[C@@H]3CC(CC(C)=O)C(=O)O3)O2)O1 (stereo partly specified)		> 100	40.6	> 100	37.1	> 100			14.6	6.72	64.7	72	37.2	
Cc1cc(=O)[nH]c(S(=O)(=O)NC(=S)Nc2ccc(Br)cc2)n1	> 100	> 100	> 100	> 100	70	> 100	> 100	> 100						
Cc1cccc(-c2cc(=O)c3c(C)ccnc3[nH]2)c1	> 100	> 100	> 100	16.3	0.798		> 100	> 100						
Fc1ccccc1C1SCC2=Nc3ccccc3CN21 (stereo unspecified)	> 100	> 100	> 100	> 100		> 100	> 100	> 100						
CCCCCCCCCCCOCCC1C(C(C)OCCN2CCCC2)OC2OC(C)(C)OC21 (stereo unspecified)	10.8	6.52	5.93	5.05	1.05	3.55	8.96	7.07						
CC(C)(C)OC(=O)N[C@@H](Cc1ccccc1)C(=O)N1CC[C@@H](C(=O)N2[C@H]3CC4CC[C@@]3(CS2(=O)=O)C4(C)C)N1	> 100	> 100	> 100	> 100		> 100	> 100	> 100						
CC(=O)Oc1ccc(-c2c(OC(C)=O)c(OC(C)=O)c(-c3ccc(OC(C)=O)c(OC(C)=O)c3)c(OC(C)=O)c2OC(C)=O)cc1	30.8	51.6	44.3	> 100	18.4	38.6	69	31.9						
CC(C)=CCC/C(C)=C/CCC1(C)C2COC(=O)C21 (stereo unspecified)	> 100	> 100	> 100	> 100	> 100	> 100	> 100							
CCCNC(=O)Cn1c(-c2ccccc2)cc2ccccc21	> 100	> 100	> 100	> 100	60.1	> 100	> 100	> 100						
Cc1ccc(Oc2cc(C)ccc2P(=O)(O)O)cc1		> 100	> 100		> 100	> 100	> 100	> 100						
CCOC(=O)Cn1c(C)nc2nn(Cc3ccccc3)cc2c1=O	> 100		> 100	> 100		> 100	> 100							
O=C(O)C1(Cc2ccc3c(c2)CCC3)Cc2cc3c(cc2C1)CCC3	> 100		> 100			> 100	> 100	> 100						
COc1ccc(N2C(=O)CSC2c2cc(OC)c(OC)c(OC)c2)cc1 (stereo unspecified)	40.9	62.7	> 100	63.5	73.6	> 100	71							
CCn1c2ccccc2c2cc(NC(=O)c3c(C)[nH]c(=O)[nH]c3=S)ccc21		> 100	> 100	> 100		> 100	> 100	> 100						
Brc1ccc2[nH]cc(-c3nc(-c4c[nH]c5ccncc45)cs3)c2c1	3.16						3.03	2.53	1.77			1.22		1650
Cc1cc2nnn(C3CCCO3)c2cc1C (stereo unspecified)		> 100	> 100	> 100	> 100		> 100	> 100						
CCCCC[C@@H]1OC(=O)[C@@]2(CC3c4ccccc4C2c2ccccc23)[C@H]1C(=O)OC	> 100	> 100		> 100		> 100	> 100							
C=CC(=O)N1C/C(=C\c2ccc(F)cc2)C(=O)/C(=C/c2ccc(F)cc2)C1	0.715	1.7		2.04	1.94	> 100	2.38	1.94						
